{"source": "patent US9808434B2", "about": "“Compound for treating cancer and diabetes” (CITY OF HOPE, priority 2011, dated 2017)", "key": {"HIF-1α": {"system": "HIF-1α", "assay": "HIF-1α protein expression in U251, immunoblotting", "type": "cell-based", "conditions": "U251, 1-10 μM", "protocol": "U251 cells were incubated with various concentrations of COH-SR4 (1˜10 μM). Whole-cell lysates were analyzed by immunoblotting with antibodies against HIF-1α. GAPDH was used as a loading control."}, "NHDF": {"system": "NHDF", "assay": "Colony formation assay, NHDF", "type": "cell-based, human", "conditions": "FIG. 67B, 5 μM, vs untreated control", "protocol": "Cell survival was evaluated using a standard colony-forming assay. In total, 1×10^5 cells/mL were incubated with COH-SR4 (1.5 μM or 5 μM) or elesclomol (5 μM) for 24 h, and aliquots of 50 or 100 μL were added to 60 mm size petri dishes, containing 4 mL culture medium. After 7 or 10 days, adherent colonies were fixed, stained with 0.5% methylene blue for 30 min and colonies were counted using the Innotech Alpha Imager HP (91)."}, "A2058 human melanoma": {"system": "A2058 human melanoma", "type": "in vivo", "protocol": "For melanoma studies, C57B mice (for syngeneic B16-F0 mouse melanoma model) and Hsd: Athymic nude nu/nu mice (for A2058 human melanoma mouse xenografts model), were obtained from Harlan, Indianapolis, Ind. All animal experiments were carried out in accordance with a protocol approved by the Institutional Animal Care and Use Committee (IACUC). […] All animals were injected with 2×10^6 melanoma cells suspensions in 100 μL of PBS, subcutaneously into one flank of each mouse. Treatment was started 10 days after the implantation to see palpable tumor growth. […] Control groups were treated with 200 μL corn oil by oral gavage alternate days. Animals were examined daily for signs of tumor growth. Tumors were measured in two dimensions using calipers. Photographs of animals were taken at day 1, day 10, day 14, day 18, day 20, day 30, and day 51 after subcutaneous injection, are shown for all groups. Photographs of tumors were also taken at day 20 (for syngeneic model), and at day 51 (for xenograft model).\nC57B mice (for syngeneic B16-F0 mouse melanoma model) and Hsd: Athymic nude nu/nu mice (for A2058 human melanoma mouse xenografts model), were used for testing the impact of oral administration of COH-SR4 on melanoma progression in vivo models. […] All animals were injected with 2×10^6 melanoma cells suspensions in 100 μL of PBS, subcutaneously into one flank of each mouse. Treatment was started 10 days after the implantation of melanoma cells. […] Control groups were treated with 200 μL corn oil by oral gavage alternate day. Animals were examined daily for signs of tumor growth and body weights were recorded. […] Animals were examined daily for signs of tumor growth. Tumors were measured in two dimensions using calipers. […] Weights and photographs of tumors were also taken at day 20 (for syngeneic model), and at day 51 (for xenograft model) (FIG. 70B). […] Tumors were measured in two dimensions using calipers and time-course analysis of tumor regression was performed during the study. […]"}, "[1]": {"system": "A2058, A101D and SK-Mel-28 melanoma cells", "assay": "Mitochondrial ROS, MitoSox Red", "type": "cell-based, human", "conditions": "5 μM, 1 h", "protocol": "Briefly, cells (4×10^5 well) were seeded in a 6-well plate and incubated overnight. Twenty-four hours after plating, cells were treated with test compounds as indicated in each experiment. After washing with pre-warmed PBS, cells were incubated with fresh medium containing 5 μM MitoSox Red for 15 min at 37° C. The fluorescence intensity was measured at of 530ex/590em using flow cytometry (Cyan ADP). The cells only sample (no MitoSox dye added) was used as the background. Approximately 30,000 counts were made for each sample. Experiments were repeated for three times and at least duplicate samples were included in each experiment.\nMitochondrial ROS was measured by MitoSox Red according to the manufacturer's instructions (Molecular Probes, CA). The intensity of fluorescence was quantified by digital analysis of images obtained from confocal microscopy using Image Pro Premiere software (Media Cybernetics Inc., Bethesda, Md.) (A2058, FIG. 74A) or by flow cytometry (FIG. 74B). Cells were treated with either 5 μM of COH-SR4, rotenone (mitochondrial complex 1 inhibitor) or elesclomol for 1 h. *Results represent fold increase of ROS generation over control and are expressed as mean±SD from three independent experiments."}, "GST": {"system": "GST", "assay": "GST activity towards CDNB in lung cancer cell supernatants", "type": "biochemical, human", "conditions": "H1417, H1618, H520, H358 supernatants; 1 mM GSH and CDNB", "protocol": "In the context of the elevation of GSTs in lung cancer, the impact of COH-SR4 on the catalytic activity of GSTs towards 1-chloro 2,4-dinitro benzene (CDNB), a model substrate used for GST activity was analyzed. GST activity towards 1-chloro 2,4-dinitro benzene (CDNB) and its inhibition by COH-SR4 was performed in 28000×g crude supernatant prepared from H1417, H1618, H520 and H358 cells. The inhibitory effect of COH-SR4 on GST was studied at a fixed concentration of GSH and CDNB (1 mM each) and varying concentrations of inhibitor. The enzymes were pre-incubated with the inhibitor for 5 min at 37° C. prior to the addition of the substrates. The experiment was repeated three times and similar results were obtained. […] Human liver purified GST was used as a control (FIG. 79B, inset). GSTs are a class of phase II detoxifying enzymes, which regulate detoxification of administered chemotherapy drugs for further efflux out of cells by transport proteins. The GST inhibition leads to accumulation of toxic end-products of lipid peroxidation due to decreased efflux of GS-HNE which also reinforces the GST inhibition by feedback inhibition. The over-expression of GSTs is a common phenomenon associated with malignant progression of many cancers including lung cancer, melanomas skin and prostate cancers. […]"}}}
{"compound": "O=C(Nc1cc(Cl)cc(Cl)c1)Nc1cc(Cl)cc(Cl)c1", "note": "[COH-SR4, 1,3-bis(3,5-dichlorophenyl) urea]", "values": [{"measurement": "HIF-1α protein expression", "setting": "HIF-1α", "value": "inhibited HIF-1α protein expression"}, {"measurement": "colony forming potential", "setting": "NHDF", "value": "97±3", "unit": "%"}, {"measurement": "tumor regression and toxicity at higher dosage", "setting": "A2058 human melanoma; 20 mg/kg b.w.", "value": "no further improvement in tumor regression and no toxicity was observed"}, {"measurement": "tumor weight", "setting": "A2058 human melanoma; day 51, control 1.91±0.3 g", "value": "0.7 ± 0.1", "unit": "g"}, {"measurement": "survival (still alive)", "setting": "A2058 human melanoma; vehicle censored by day 51±3", "value": "≥ 88", "unit": "days"}, {"measurement": "mitochondrial ROS production (MitoSox Red)", "setting": "[1]", "value": "induced ROS production"}, {"measurement": "total GST activity towards CDNB", "setting": "GST", "value": "inhibited the total GST activity to a significant extent"}]}
